Results: patent US20240392241A1, “METHOD FOR PRODUCING CELL MASS INCLUDING PITUITARY TISSUE AND CELL MASS” (SUMITOMO CHEMICAL COMPANY, LIMITED, priority 2021, published 2024)
Ends that are not written are not given here.

Columns and labels:
Type in all cases: cell-based
[1] = test system: cell aggregates containing pituitary tissue from human ES cells (KhES-1 strain); assay: ACTH stimulation/suppression test by CRH or dexamethasone in cell aggregates containing pituitary tissue (Example 14); conditions: 24 hr, cell aggregates on day 103
Description: Cell aggregates containing pituitary tissue were produced in the same manner as in Example 10, and ACTH secretory capacity was studied. 20 cell aggregates with different numbers of culture days after the start of suspension culturing were transferred to a 10 cm suspension culture dish containing 10 mL of serum-free medium supplemented with 20% KSR, and after culturing for 3-4 days at 37° C., the culture supernatant was recovered. The ACTH concentration in the recovered culture supernatant was measured by the ELISA method used in clinical testing (testing outsourced to SRL, Ltd.). As a result, ACTH secretion was observed from day 29 after the start of suspension culturing (23 pg/mL), and the amount of ACTH secretion increased remarkably as the number of days of culture increased (FIG. 17A).
Then, it was studied whether an increase in ACTH secretion by CRH and suppression of ACTH secretion by glucocorticoid were observed. Specifically, 20 cell aggregates on day 103 after the start of suspension culturing were transferred to a 10 cm suspension culture dish containing 10 mL of serum-free medium supplemented with 20% KSR, and after culturing for 24 hr under conditions of 37° C., […], the culture supernatant was recovered. […] The ACTH concentration in the recovered culture supernatant was measured as described above. […]

[2] = test system: human ES cells (KhES-1 strain); assay: Concentration of IWP2, BMP4 and SAG, ACTH concentration in culture medium (Reference Example 3); conditions: combination: low (IWP2 0.5 μM, BMP4 0.5 nM, SAG 700 nM) vs high (IWP2 2 μM, BMP4 5 nM, SAG 2 μM); days 61-250
Description: Then, for the purpose of examining the optimal concentrations of IWP2, BMP4, and SAG to be added in each step, two groups of a high concentration group (IWP2; 2 μM, BMP4; 5 nM, SAG; 2 μM) and a low concentration group (IWP2; 0.5 μM, BMP4; 0.5 nM, SAG; 700 nM) were established, and a comparative study was conducted using the ACTH concentration in the culture medium on days 61, 103, 152, 201, and 250 of differentiation induction as an indicator. Using human ES cells (KhES-1 strain) and according to step shown in FIG. 9A, a cell population including cells that constitute pituitary tissue was produced. Using the method described in Example 4, the concentration of ACTH in the medium was measured.

[3] = test system: human ES cells (RAX::Venus knock-in KhES-1 strain); assay: Addition period of IWP2, SB431542 and BMP4, immunostaining of PITX1, LHX3, E-cadherin on day 29 (Reference Example 2); conditions: IWP2 (2 μM) and SB431542 (1 μM) added day 0 to day 29 and BMP4 (5 nM) day 2 to day 6, vs other addition periods
Description: After performing step a, suspension culturing was performed in a medium containing a Wnt signal inhibitor IWP2 (2 μM) and a TGFβ signal inhibitor SB431542 (1 μM) in addition to BMP4 (5 nM) and SAG (100 nM (step (1)) or 2 μM (step (2)). IWP2 and SB431542 were added during the period from day 0 to day 6 after the start of suspension culturing (FIG. 8B-1), from day 0 to day 12 after the start of suspension culturing (FIG. 8B-2), or from day 0 to day 29 after the start of suspension culturing (FIG. 8B-3). BMP4 was added during the period from day 2 to day 6 after the start of suspension culturing (upper panel of each of FIGS. 8B-1 to -3) or from day 2 to day 18 after the start of suspension culturing (lower panel of each of FIGS. 8B-1 to -3). Using cell aggregates on day 29 after the start of suspension culturing, cryosections were prepared in the same manner as in Example 3. These cryosections were subjected to immunostaining using PITX1 (anti-Pitx1 antibody, homemade) and antibody against epithelial cell marker E-cadherin (manufactured by Takara Bio Inc.). As a result, it was confirmed that the outside of the aggregate was a nonneural epithelial tissue that was positive for PITX1 and E-cadherin, and the inside was a neural epithelial tissue that was positive for RAX::Venus (FIGS. 8B-1 to -3).
The scale bar at the bottom right of FIGS. 8B-1 to -3 indicates 200 μm.

[4] = test system: human iPS cell line 1231A3; assay: Effect of substance reducing oxidative stress on pituitary organoid production, bright field observation (Example 6); conditions: 1 mM from day 10; day 30 of differentiation induction
[5] = test system: human iPS cells (201B7 strain); assay: SAG addition period and ACTH secretion capacity of cell aggregates (Example 9); conditions: stopping SAG treatment 30 days after start of differentiation induction vs continued SAG treatment
Description: Using human iPS cells (201B7 strain) and according to the steps shown in FIG. 12A, cell aggregates were produced. Regarding the SAG treatment period, two groups of a group in which SAG is added from immediately after the start of differentiation induction until day 30, and a group in which SAG is added from immediately after the start of differentiation induction and after day 30 (until day 61, until day 103, and until day 131) were set, and the ACTH secretion capacity was compared. ACTH was measured by a method similar to that in Example 4.

[6] = test system: human iPS cells (1231A3 strain); assay: Timing of BMP4 addition under JNK inhibitor addition conditions, oblique illumination observation (Example 17); conditions: BMP4 added after 24 hr (day 1) vs about 48 hr (day 2); JNK inhibitor present; day 28
Description: In Example 17, a cell population containing cells constituting pituitary tissue was produced according to the steps shown in FIG. 20A. Specifically, human iPS cells (1231A3 strain, obtained from RIKEN) were cultured under feeder-free conditions according to the method described in Scientific Reports, 4, 3594 (2014). As the feeder-free medium, StemFit medium was used and, as the feeder-free scaffold, Laminin 511-E8 was used.
Differentiation induction was performed under the same conditions as in Example 1, except that the addition conditions of BMP4 and the final concentration of IWP-2 were changed to 1 μM. As a condition for adding BMP4, step (2) was performed about 24 hr (day 1) and about 48 hr (day 2) after the start of differentiation induction.
On day 28 after the start of suspension culturing, oblique illumination observation was performed using an inverted fluorescence microscope (BIOREVO BZ-X800, manufactured by Keyence Corporation) (FIG. 20B). As a result, pituitary organoid with placode-like pituitary tissue observed as a thick, highly transparent epithelium on the surface of the cell mass was formed, under both BMP4 addition conditions of about 24 hr (day 1) and about 48 hr (day 2) after the start of differentiation induction. […]

| Molecule | ACTH concentration in the culture medium, low concentration group vs high concentration group [2] | formation of PITX1-positive and E-cadherin-positive nonneural epithelial tissue [3] | also measured |
| --- | --- | --- | --- |
| C[C@@H]1C[C@H]2[C@@H]3CCC4=CC(=O)C=C[C@]4(C)[C@@]3(F)[C@@H](O)C[C@]2(C)[C@@]1(O)C(=O)CO [DX, dexamethasone] |  |  | reduction of the amount of ACTH secretion ([1]; 500 ng/mL): about 40% |
| Cc1ccc2nc(NC(=O)CSc3nc4c(c(=O)n3-c3ccccc3)SCC4)sc2c1 [IWP2, N-(6-Methyl-2-benzothiazolyl)-2-[(3,4,6,7-tetrahydro-4-oxo-3-phenylthieno[3,2-d]pyrimidin-2-yl)thio]acetamide] | higher | highest probability |  |
| CC(=O)N[C@@H](CS)C(=O)O [NAC, N-acetylcysteine] |  |  | cell masses smaller in diameter than in the non-addition conditions [4]: about 50 μm; proliferation of unintended cells [4]: suppressed |
| CNC1CCC(N(Cc2cccc(-c3ccncc3)c2)C(=O)c2sc3ccccc3c2Cl)CC1 (stereo not drawn) [SAG, N-Methyl-N′-(3-pyridinylbenzyl)-N′-(3-chlorobenzo[b]thiophene-2-carbonyl)-1,4-diaminocyclohexane] | higher |  | ACTH secretion capacity [5]: improved |
| NC(=O)c1ccc(-c2nc(-c3ccc4c(c3)OCO4)c(-c3ccccn3)[nH]2)cc1 [SB431542, 4-[4-(3,4-Methylenedioxyphenyl)-5-(2-pyridyl)-1H-imidazol-2-yl]benzamide] |  | highest probability |  |
| CRH: CRH (manufactured by Nipro ES Pharma) used to stimulate ACTH secretion (SEEPPISLDLTFHLLREVLEMARAEQLAQQAHSNRKLMEII; ends and bridges not checked; UniProt P06850 154-194, looked up) |  |  | increase of ACTH secretion amount ([1]; 5 μg/mL): about 3 times |
| BMP4: BMP signal transduction pathway activating substance (protein, UniProt P12644 293-408, looked up) Bone morphogenetic protein 4: SPKHHSQRARKKNKNCRRHSLYVDFSDVGWNDWIVAPPGYQAFYCHGDCPFPLADHLNSTNHAIVQTLVNSVNSSIPKACCVPTELSAISMLYLDEYDKVVLKNYQEMVVEGCGCR | higher | highest probability | size of the pituitary organoids formed [6]: more uniform |
